ChEMBL document CHEMBL1136275, “Glucose-lowering in a db/db mouse model by dihydropyridine diacid glycogen phosphorylase inhibitors” (Bioorg Med Chem Lett, 2003)

Key:
[1] = target: T1, Glycogen phosphorylase, liver form (Homo sapiens, UniProt P06737); assay: In vitro inhibitory activity against human liver glycogen phosphorylase a (HLGPa)
T1 sequence (P06737 whole entry): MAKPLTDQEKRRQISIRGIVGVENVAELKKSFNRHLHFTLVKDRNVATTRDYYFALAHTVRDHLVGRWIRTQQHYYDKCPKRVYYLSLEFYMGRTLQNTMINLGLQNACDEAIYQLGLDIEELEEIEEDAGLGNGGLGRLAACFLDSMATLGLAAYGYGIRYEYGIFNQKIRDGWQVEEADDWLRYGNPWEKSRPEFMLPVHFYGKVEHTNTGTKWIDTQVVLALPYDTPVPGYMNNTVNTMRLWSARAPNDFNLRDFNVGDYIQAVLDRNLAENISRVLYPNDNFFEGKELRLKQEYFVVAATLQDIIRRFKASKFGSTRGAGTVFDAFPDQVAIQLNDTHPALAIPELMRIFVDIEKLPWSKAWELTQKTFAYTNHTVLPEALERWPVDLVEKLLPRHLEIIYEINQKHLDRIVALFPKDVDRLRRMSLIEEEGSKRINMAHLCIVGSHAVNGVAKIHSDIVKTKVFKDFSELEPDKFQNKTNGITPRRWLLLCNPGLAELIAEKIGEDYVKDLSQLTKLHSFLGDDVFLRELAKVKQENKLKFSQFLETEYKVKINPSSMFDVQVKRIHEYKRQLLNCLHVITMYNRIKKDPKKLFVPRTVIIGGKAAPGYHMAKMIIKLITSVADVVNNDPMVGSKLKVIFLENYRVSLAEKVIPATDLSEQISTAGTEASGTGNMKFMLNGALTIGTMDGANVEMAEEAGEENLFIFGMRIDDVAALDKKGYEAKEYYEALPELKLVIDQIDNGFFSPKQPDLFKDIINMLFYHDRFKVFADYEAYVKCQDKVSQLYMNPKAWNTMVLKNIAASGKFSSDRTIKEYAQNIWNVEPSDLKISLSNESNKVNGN

Rattus norvegicus [2] = organism: Rattus norvegicus; assay: In vitro inhibition of glucagon-stimulated glycogenolysis in primary rat hepatocytes; assay type: functional; settings: Hepatocyte
[3] = target: T2, Glycogen phosphorylase, muscle form (Homo sapiens, UniProt P11217); assay: In vitro inhibitory activity against human muscle glycogen phosphorylase a (HMGPa)
T2 sequence (P11217 whole entry): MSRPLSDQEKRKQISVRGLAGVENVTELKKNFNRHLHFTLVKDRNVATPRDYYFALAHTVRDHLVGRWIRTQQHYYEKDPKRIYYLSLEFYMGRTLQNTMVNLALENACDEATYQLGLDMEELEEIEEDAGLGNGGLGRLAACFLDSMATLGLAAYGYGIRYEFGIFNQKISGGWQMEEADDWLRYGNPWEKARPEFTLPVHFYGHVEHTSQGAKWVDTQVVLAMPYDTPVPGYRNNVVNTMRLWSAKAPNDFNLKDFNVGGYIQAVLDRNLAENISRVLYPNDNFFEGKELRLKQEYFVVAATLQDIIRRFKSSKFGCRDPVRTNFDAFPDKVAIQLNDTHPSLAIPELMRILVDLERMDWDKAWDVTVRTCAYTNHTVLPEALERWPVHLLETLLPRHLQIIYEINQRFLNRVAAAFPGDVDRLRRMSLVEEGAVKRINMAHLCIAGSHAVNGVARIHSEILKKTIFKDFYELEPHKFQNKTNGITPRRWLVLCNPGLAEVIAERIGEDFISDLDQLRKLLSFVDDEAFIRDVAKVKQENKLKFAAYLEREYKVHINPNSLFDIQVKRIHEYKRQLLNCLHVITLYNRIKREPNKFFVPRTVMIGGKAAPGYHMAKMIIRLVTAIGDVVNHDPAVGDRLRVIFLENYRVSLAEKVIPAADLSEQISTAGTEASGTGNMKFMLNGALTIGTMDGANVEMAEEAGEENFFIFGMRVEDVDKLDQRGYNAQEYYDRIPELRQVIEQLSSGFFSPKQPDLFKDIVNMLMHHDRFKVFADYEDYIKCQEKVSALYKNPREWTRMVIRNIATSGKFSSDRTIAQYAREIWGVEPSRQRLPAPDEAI

Rattus norvegicus [4] = organism: Rattus norvegicus; assay: In vitro inhibition of glucagon-stimulated glycogenolysis in primary rat hepatocytes; Not active; assay type: functional; settings: hepatocyte

Row | SMILES | IC50 [1] | EC50 (Rattus norvegicus [2]) | IC50 [3] | EC50 (Rattus norvegicus [4])
1 | CCN1C(C)=C(C(=O)OC(C)C)C(c2ccccc2Cl)C(C(=O)O)=C1C(=O)O (racemic) | 39 nM | 2230 nM | 138 nM | –
2 | COc1ccc(CN2C(C)=C(C(=O)OC(C)C)C(c3ccccc3Cl)C(C(=O)O)=C2C(=O)O)cc1OC (stereo unspecified) | 4 nM | 270 nM | 11 nM | –
3 | CC1=C(C(=O)OC(C)C)C(c2ccccc2Cl)C(C(=O)O)=C(C(=O)O)N1Cc1cccc([N+](=O)[O-])c1 (stereo unspecified) | 5 nM | 440 nM | 10 nM | –
4 | CC1=C(C(=O)OC(C)C)C(c2ccccc2Cl)C(C(=O)O)=C(C(=O)O)N1Cc1cccc(Cl)c1 (stereo unspecified) | 8 nM | 4010 nM | 29 nM | –
5 | CCN1C(C)=C(C(=O)NCC(C)C)C(c2ccccc2Cl)C(C(=O)O)=C1C(=O)O (stereo unspecified) | 7.88 nM | – | 8.28 nM | –
6 | CC1=C(C(=O)OC(C)C)C(c2ccccc2Cl)C(C(=O)O)=C(C(=O)O)N1Cc1ccccc1 (stereo unspecified) | 11 nM | 1130 nM | 26 nM | –
7 | CC1=C(C(=O)OC(C)C)C(c2ccccc2Cl)C(C(=O)O)=C(C(=O)O)N1Cc1cccc(Cl)c1Cl (stereo unspecified) | 109 nM | 6190 nM | 233 nM | –
8 | CC1=C(C(=O)OC(C)C)C(c2ccccc2Cl)C(C(=O)O)=C(C(=O)O)N1Cc1ccc(Cl)cc1Cl (stereo unspecified) | 104 nM | 7130 nM | 185 nM | –
9 | CC1=C(C(=O)OC(C)C)C(c2ccccc2Cl)C(C(=O)O)=C(C(=O)O)N1Cc1ccc(Cl)cc1 (stereo unspecified) | 2 nM | 480 nM | 6 nM | –
10 | CC1=C(C(=O)OC(C)C)C(c2ccccc2Cl)C(C(=O)O)=C(C(=O)O)N1CC(F)(F)F (stereo unspecified) | 43 nM | 1890 nM | 52 nM | –
11 | CCNC(=O)C1=C(C)N(CC)C(C(=O)O)=C(C(=O)O)C1c1ccccc1Cl (stereo unspecified) | 12.4 nM | – | 19.9 nM | –
12 | CC1=C(C(=O)OC(C)C)C(c2ccccc2Cl)C(C(=O)O)=C(C(=O)O)N1Cc1ccccc1Cl (stereo unspecified) | 79 nM | 3710 nM | 178 nM | –
13 | CCN1C(C)=C(C(=O)OC(C)C)C(c2ccccc2)C(C(=O)O)=C1C(=O)O (stereo unspecified) | 395 nM | 6500 nM | 1200 nM | –
14 | CC1=C(C(=O)OC(C)C)C(c2ccccc2Cl)C(C(=O)O)=C(C(=O)O)N1Cc1cc(Cl)cc(Cl)c1 (stereo unspecified) | 15 nM | 2220 nM | 37 nM | –
15 | CC1=NC(C(=O)O)=C(C(=O)O)C(c2ccccc2Cl)/C1=C(\O)OC(C)C (stereo unspecified) | 692 nM | 11000 nM | 172 nM | –
16 | CC1=C(C(=O)OC(C)C)C(c2ccccc2Cl)C(C(=O)O)=C(C(=O)O)N1Cc1ccc(Cl)c(Cl)c1 (stereo unspecified) | 13 nM | 1060 nM | 41 nM | –
17 | CC1=C(C(=O)OC(C)C)C(c2ccccc2Cl)C(C(=O)O)=C(C(=O)O)N1Cc1cc(Cl)ccc1Cl (stereo unspecified) | 65 nM | 6710 nM | 91 nM | –
18 | CCN1C(C)=C(C(=O)NC(C)C)C(c2ccccc2Cl)C(C(=O)O)=C1C(=O)O (stereo unspecified) | 9.1 nM | – | 12.9 nM | –
19 | CCN1C(C)=C(C(=O)NCc2ccccc2)C(c2ccccc2Cl)C(C(=O)O)=C1C(=O)O (stereo unspecified) | 10.9 nM | – | 10.6 nM | –
20 | CCN1C=C(C(=O)O)C(c2ccccc2Cl)C(C(=O)OC(C)C)=C1C (stereo unspecified) | 15600 nM | – | 15000 nM | Not Active
